Reference: patent US20160128988A1, “COMBINATIONS FOR THE TREATMENT OF CANCER COMPRISING A MPS-1 KINASE INHIBITOR AND A MITOTIC INHIBITOR” (BAYER PHARMA AKTIENGESELLSCHAFT, priority 2013, published 2016)
Like-named read-outs stand apart in the source and are kept apart here.

What was measured:
[1] = test system: NCI-H1299 human NSCLC xenograft tumors
Method: The effect of combination treatment of an Mps-1 inhibitor and paclitaxel was studied in the NCI-H1299 taxane intrinsically resistant human lung carcinoma (NSCLC) xenograft model in nude mice.
Paclitaxel was applied intravenously once per week upon its respective MTD. Substances were formulated in optimal vehicles to achieve solutions. Animal body weight and tumor size were determined two to three times weekly. […] For combination treatment, the Compound A1 and paclitaxel were applied at the same day within a time frame of 4 hours. Animals of control and monotherapy group (Compound A1 only) were treated for a duration of 28 days. Animals of paclitaxel monotherapy and paclitaxel/Mps-1 inhibitor treatment groups were treated for a duration of 37 days. At the end of the study after one final treatment plasma and tumors were sampled for PK analysis and final tumor weight was determined.
(§1) FIGS. 1A and 1B show the response of NCI-H1299 human NSCLC xenograft tumors to treatment with Compound A1 in combination with paclitaxel. NCI-H1299 human NSCLC tumor cells were implanted s.c. into nude mice on day 0. […] Compound A1 was administered orally (p.o.) upon 0.45 mg/kg twice daily (2QD) for 2 days on/5 days off (2 on/5 off) in monotherapy and in combination with paclitaxel. Paclitaxel was administered intravenously (i.v.) upon 20 mg/kg once daily (QD) once per week (1 on/6 off) in monotherapy and combination therapy. Tumor growth was monitored by determination of the tumor area using calliper measurement two to three times weekly. FIG. 1A: Time course of tumor growth. FIG. 1B: Time course of animal body weight change during the course of the study.

[2] = test system: NCI-H1299 human NSCLC xenograft tumors; remark: listed apart in the source
Excerpt: The effect of combination treatment of an Mps-1 kinase inhibitor (Compound A1) with docetaxel, another SAC activating, […], anti-mitotic agent, used as standard of care in NSCLC patients, was studied in the NCI-H1299 taxane intrinsically resistant human lung carcinoma (NSCLC) xenograft model in nude mice.
Docetaxel was applied intravenously once per week upon its respective MTD. Substances were formulated in optimal vehicles to achieve solutions. Animal body weight and tumor size were determined two times weekly. […] For combination treatment Compound A1and docetaxel were applied at the same day within a time frame of 4 hours. Animals of control and Mps-1 kinase inhibitor monotherapy group were treated for a duration of 20 days. Animals of docetaxel monotherapy and docetaxel/Mps-1 kinase inhibitor combination treatment groups were treated for a duration of 42 days. At the end of the study after one final treatment plasma and tumors were sampled for PK analysis and final tumor weight was determined.
as §1, with “NCI-H1299” for “FIGS. 1A and 1B show the response of NCI-H1299 human NSCLC xenograft tumors to treatment with Compound A1 in combination with paclitaxel. NCI-H1299”, “2.0” for “0.45”, “docetaxel. Docetaxel” for “paclitaxel. Paclitaxel”, “15” for “20”, “2A:” for “1A:”, “2B: Weight of tumors in docetaxel/Mps-1 kinase inhibitor combination group at the end of the study at day 52 after tumor cell inoculation. FIG. 2C:” for “1B:”

[3] = test system: primary human NSCLC xenograft model LU387; experiment: Combination with paclitaxel in primary human NSCLC xenograft model LU387; assay type: in vivo, nude mice; settings: for mean tumor size: day 42 post treatment
Method: The effect of Compound A1 and paclitaxel compared with a vehicle was evaluated in the subcutaneous primary human NSCLC xenograft model LU387 on nude mice.

[4] = test system: IGR-OV1 human ovarian carcinoma model
Method: Paclitaxel was administered IV QW at 50% of its respective MTD.

[5] = test system: A2780 human ovarian carcinoma model; assay type: in vivo; settings: Compound A1 single agent 1 mg/kg and 2.5 mg/kg (8 days); triple combination (17 treatment days)
Method: Cisplatin and paclitaxel were administered in combination at their respective MTD, cisplatin intraperitoneally (IP) every second week (Q2W) and paclitaxel IV QW.

[6] = test system: cisplatin-resistant ovarian cancer cells A2780cis; experiment: Mode of action: histopathology of A2780cis tumors after treatment; settings: Compound A1 single agent 2.5 mg/kg PO 2QD 2 days on/5 days off, samples 24 hours after first administration
Method: To explain in vivo the mode of action of an Mps-1 kinase inhibitor in single-agent treatment and combination treatment with a taxane, female NMRI (Naval Medical Research Institute) nude mice were implanted with cisplatin-resistant ovarian cancer cells A2780cis.
Paclitaxel was administered IV (intravenous(ly)) QW (once per week (meaning the 1 day on/6 days off treatment schedule)) at its MTD (24 mg/kg) in single-agent and combination treatments. […] Tumors were embedded in paraffin, sections were prepared and stained with hematoxylin & eosin for histopathological analysis.

[7] = test system: MKN1 human gastric carcinoma model; experiment: Combination with paclitaxel in MKN1 human gastric carcinoma model; settings: Compound A1 single agent 1 mg/kg or 2.5 mg/kg (40 days); paclitaxel and combination (78 treatment days)
Method: Compound A1 was administered PO in the 2QD intermittent (2 days on/5 days off) dosing schedule up to the respective MTD in single-agent treatment and at a dose of 40% of the single-agent MTD in combination. Paclitaxel was administered IV QW at its respective MTD. Treatment for all groups started at a tumor size of 27 mm^2, on day 7 after tumor cell inoculation. For combination treatment, Compound A1 and paclitaxel were administered on the same day within a time of 4 hours. Animals of the control and Compound A1 single-agent treatment groups were treated for 40 days. Animals of the paclitaxel single-agent and Compound A1 with paclitaxel combination treatment groups were treated for 78 days.

[8] = Compound A1 0.45 mg/kg 2QD 2on/5off p.o., paclitaxel 20 mg/kg QD 1on/6off i.v.
[9] = Compound A1 2 mg/kg 2QD 2on/5off p.o., docetaxel 15 mg/kg QD 1on/6off i.v.

COc1cc(S(C)(=O)=O)ccc1Nc1nc2ccc(-c3ccc(NC(=O)[C@H](C)c4ccc(F)cc4)cc3)cn2n1 [Compound A1]
Fatal Tox [1, 8]: 0/10 | Max. Body weight loss (%) [1, 8]: −1% | anti-tumor efficacy (in words) ([1]; Compound A1 0.45 mg/kg 2QD p.o. (28 treatment days), combination with paclitaxel 20 mg/kg i.v. (37 treatment days)): no effect on tumor growth | T/C weight ([1]; mean final tumor weight, Compound A1 0.45 mg/kg 2QD 2on/5off p.o.): 1.34 | T/C area ([1]; relative mean tumor area, 28 treatment days, Compound A1 0.45 mg/kg 2QD 2on/5off p.o., paclitaxel 20 mg/kg QD 1on/6off i.v.): 1.27 | Fatal Tox [2, 9]: 0/8 | Max. Body weight loss (%) [2, 9]: −3% | anti-tumor efficacy (in words) ([2]; Compound A1 2 mg/kg 2QD p.o. (20 treatment days), combination with docetaxel 15 mg/kg i.v. (42 treatment days)): weak efficacy | T/C weight ([2]; mean final tumor weight, Compound A1 2 mg/kg 2QD 2on/5off p.o.): 1.01 | T/C area ([2]; relative mean tumor area, 20 treatment days, Compound A1 2 mg/kg 2QD 2on/5off p.o., docetaxel 15 mg/kg QD 1on/6off i.v.): 0.89 | antitumor activity (in words) ([3]; Compound A1 single agent 1 mg/kg and 2.5 mg/kg, combination with paclitaxel): no significant antitumor activity | T/Cvolume ([3]; day 42, Compound A1 2.5 mg/kg (high dose)): 0.73 | mean tumor size ([3]; Compound A1 1 mg/kg PO 2QD 2 days on/5 days off over 6 weeks): 1788 mm^3 | mean tumor size ([3]; Compound A1 2.5 mg/kg PO 2QD 2 days on/5 days off over 6 weeks): 1137 mm^3 | T/Cweight ([4]; 38 treatment days, Compound A1 2.5 mg/kg PO 2QD 2 days on/5 days off): 0.52 | relative T/Carea ([4]; 38 treatment days, Compound A1 single agent 2.5 mg/kg PO 2QD, paclitaxel 12 mg/kg IV QW, combination with Compound A1 2 mg/kg PO 2QD): 0.57 | anti-tumor efficacy (in words) ([4]; Compound A1 2.5 mg/kg single agent (38 days), paclitaxel 12 mg/kg and combination with Compound A1 2 mg/kg (treatment day 38 to 59)): moderate single-agent efficacy | tolerability (in words) ([4]; mouse, in vivo): well tolerated without critical body weight loss or toxicities | anti-tumor efficacy (in words) [5]: weak single-agent efficacy | histopathological phenotype of tumor tissue [6]: induction of a pleomorphic phenotype, including multinuclearity | anti-tumor efficacy (in words) [7]: no effect on tumor growth inhibition
